In patent publication US10829527B2, “Conjugates of islet neogenesis peptides and analogs, and methods thereof” (SHENZHEN HIGHTIDE BIOPHARMACEUTICAL, LTD., priority 2016, dated 2020):

Key:
[1] = tested on: STZ induced diabetic mice; experiment: Oral glucose tolerance test (OGTT) in STZ induced diabetic mice model; assay type: in vivo, C57BL/6J mice; conditions: 250 nM/kg, glucose AUC T0~120 min, day 10 of treatment, 6 hours fasted
Protocol: (§1) After acclimatization in the animal facility for one week, 6-8 weeks old C57BL/6J mice were administered high dose STZ at 150 mg/kg in citrate buffer to establish a T1D animal model. Mice with blood glucose greater than 16.7 mmol/L at 10 days post last STZ injection were included in the study. These mice were then treated with INGAP-PP or GLP-1 or Peptide 2 at the dose of 250 nM/kg for 10 days before sacrifices. One additional group of diabetic mice were administered with saline as model control groups. Blood glucose levels were measured on day 8. Ten days post the last dosing of test agents, an oral glucose tolerance test (OGTT) was performed in 6 hours fasted animals. Blood samples obtained from the tail for glucose determination were detected with an ACCU-CHEK™ glucometer (Roche, ACCU-CHEK® Performa)
(§2) The blood glucose (BG, mM) present were measured on day 8 of treatment. The area under curve (AUC) of glucose (T0˜120 min) measured in an oral glucose tolerance test (OGTT) on day 10 of treatment.

[2] = tested on: STZ induced diabetic mice; experiment: Blood glucose in streptozotocin (STZ) induced diabetic mice model; assay type: in vivo, C57BL/6J mice; conditions: 250 nM/kg, day 8 of treatment
Protocol: as §1, §2

pancreatic islets = experiment: Glucose-stimulated insulin secretion (GSIS) of isolated islets; assay type: cell-based, C57BL/6J mice; conditions: for Insulin Secretion: 16.7 mM glucose + 10 nM peptide, groups of 5 islets, 60 min incubation; for Insulin release compared with islets cultured without the addition of peptides: 16.7 mM glucose, 10 nM peptide, result in words
Protocol: The pancreases were procured from male adult C57BL/6J mice. After 7 days acclimation, the animals were sacrificed by cervical dislocation and the entire pancreas was removed and digested with collagenase to isolate islets. After digestion, islets were maintained at 37° C. in RPMI 1640 (Carlsbad Calif., USA) pH 7.4, containing 10% (v/v) fetal calf serum, 1% penicillin/streptomycin, and 10 mM glucose in a humid atmosphere (5% CO2/95% O2), without the addition of any compound (control), or with the addition of 10 nM glucagon like peptide-1 (GLP-1); or 10 nM INGAP-PP; or 10 nM Peptide 1, Peptide 2 or Peptide 3, as summarized in Table 5 below.
Cultured islets were rinsed in Krebs-Ringer bicarbonate buffer (KRB), pH 7.4, previously gassed with a mixture of CO2/O2 (5/95%), and pre-incubated in 1.0 mL of KRB containing 0.5% (w/v) BSA and 2.8 mM glucose at 37° C. for 45 min. After this period, groups of 5 islets were incubated in 0.6 mL KRB with the addition of 2.8 or 16.7 mM glucose, with or without the addition of peptides for 60 min. At the end of the incubation period, aliquots of the medium were collected for insulin quantitation.

Substance | AUC of OGTT (Day 10) [1] | Blood Glucose (Day 8) [2] | Insulin Secretion (pancreatic islets) | Insulin release compared with islets cultured without the addition of peptides (pancreatic islets)
H-IGLHDPSHGTLPNGS-OH (also: D-Isoleucine at 1) [INGAP-PP] | 3207.6 ± 801.5 | 25.9 ± 9.1 mM | 2.5 ± 1.0 ng/islet/hour | no stimulation
glucagon like peptide-1 [GLP-1] | 3054.7 ± 728.9 | 22.1 ± 6.8 mM | 5.4 ± 2.1 ng/islet/hour | significantly more insulin
